The test system of this data set is rodent carcinogenicity bioassays, tumor incidence. Put plainly: CCRIS carcinogenicity studies. In outline: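 NCI-built, expert-reviewed records of carcinogenicity and related test outcomes (mutagenicity, tumor promotion/inhibition) compiled from published and report sources, historical span 1985-2011, not updated.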

SMILES strings stand for the structures. Active and inactive are the calls of the source. How the calls were made is not given here.

As for `Nc1ccc(N)c2c1C(=O)c1c(N)ccc(N)c1C2=O`, the carcinogen call runs as follows: (Species: MOUSE, Strain/Sex: B6C3F1/FEMALE, Route: ORAL, Dose: 0, 600, 1200, 2500 PPM IN DIET FOR 104 WK (STUDY DURATION: 105 WK), Dose: 0, 600, 1200, 2500 PPM IN DIET FOR 104 WK (STUDY DURATION: 105 WK)) “inactive; negative”; (Species: MOUSE, Strain/Sex: B6C3F1/MALE, Route: ORAL, Dose: 0, 600, 1200, 2500 PPM IN DIET FOR 104 WK (STUDY DURATION: 105 WK), Dose: 0, 600, 1200, 2500 PPM IN DIET FOR 104 WK (STUDY DURATION: 105 WK), Tumor Site: Type of Lesion: LIVER: HEPATOCELLULAR ADENOMA OR CARCINOMA, LUNG: ALVEOLAR/BRONCHIOLAR ADENOMA OR CARCINOMA) “equivocal”; (Species: RAT, Strain/Sex: F344/FEMALE, Route: ORAL, Dose: 0, 1250, 2500, 5000 PPM IN DIET FOR 103 WK (STUDY DURATION: 105 WK), Dose: 0, 1250, 2500, 5000 PPM IN DIET FOR 103 WK (STUDY DURATION: 105 WK), Tumor Site: Type of Lesion: URINARY BLADDER: SQUAMOUS CELL PAPILLOMA, SQUAMOUS CELL CARCINOMA, TRANSITIONAL CELL PAPILLOMA, TRANSITIONAL CELL CARCIN) “active; positive”; (Species: RAT, Strain/Sex: F344/MALE, Route: ORAL, Dose: 0, 1250, 2500, 5000 PPM IN DIET FOR 103 WK (STUDY DURATION: 105 WK), Dose: 0, 1250, 2500, 5000 PPM IN DIET FOR 103 WK (STUDY DURATION: 105 WK), Tumor Site: Type of Lesion: URINARY BLADDER: SQUAMOUS CELL PAPILLOMA, SQUAMOUS CELL PAPILLOMA OR CARCINOMA, TRANSITIONAL CELL PAPILLOMA, TRANSITIONA) “active; positive”.

With `O=[N+]([O-])c1ccc(N=Nc2c(O)ccc3ccccc23)c([N+](=O)[O-])c1`, the carcinogen call reads like this: (Species: MOUSE, Strain/Sex: ICR/FEMALE, Route: DERMAL, Dose: 0, 1 MG IN 0.1 ML DISTILLED WATER 2/WK FOR A MEAN TOTAL DOSE OF 143.7 MG (STUDY DURATION: 18 MO)) “inactive; negative”; (Species: MOUSE, Strain/Sex: ICR/MALE, Route: DERMAL, Dose: 0, 1 MG IN 0.1 ML DISTILLED WATER 2/WK FOR A MEAN TOTAL DOSE OF 143.7 MG (STUDY DURATION: 18 MO)) “inactive; negative”.

In the case of `Cn1cc(C(=O)O)c(=O)c2ccc(/C=C/c3ccc([N+](=O)[O-])o3)nc21`, the carcinogen call (Species: MOUSE, Strain/Sex: ICR/MALE, Route: ORAL, Dose: 0, 0.012% IN DIET FOR 14 WK (STUDY DURATION: 53 WK), Tumor Site: Type of Lesion: FORESTOMACH: SQUAMOUS CELL CARCINOMA, SQUAMOUS CELL PAPILLOMA, LUNG: PAPILLARY ADENOCARCINOMA) was “active; positive”.

For `Cc1cc(Cl)ccc1OC(C)C(=O)O` (stereo unspecified), the carcinogen call was “inactive; negative” (Species: Mouse, Strain/Sex: B6C3F1/CrlBR/Female (50/Group), Route: Oral, Dose: 0, 25, 250 ppm of 92.7% mecoprop in diet for 18 mo, study duration 18 mo, Dose: 0, 25, 250 ppm of 92.7% mecoprop in diet for 18 mo, study duration 18 mo); “active; positive” (Species: Mouse, Strain/Sex: B6C3F1/CrlBR/Male (50/Group), Route: Oral, Dose: 0, 25, 250 ppm of 92.7% mecoprop in diet for 18 mo, study duration 18 mo, Dose: 0, 25, 250 ppm of 92.7% mecoprop in diet for 18 mo, study duration 18 mo, Tumor Site: Type of Lesion: Lung: carcinoma); “inactive; negative” (Species: Rat, Strain/Sex: Wistar/Female (65/Group), Route: Oral, Dose: 0, 20, 100, 400 ppm of 92.7% mecoprop in diet for 24 mo, study duration 24 mo, Dose: 0, 20, 100, 400 ppm of 92.7% mecoprop in diet for 24 mo, study duration 24 mo); “inactive; negative” (Species: Rat, Strain/Sex: Wistar/Male (65/Group), Route: Oral, Dose: 0, 20, 100, 400 ppm of 92.7% mecoprop in diet for 24 mo, study duration 24 mo, Dose: 0, 20, 100, 400 ppm of 92.7% mecoprop in diet for 24 mo, study duration 24 mo).

For the compound `Clc1cccc(-c2cc(Cl)cc(Cl)c2)c1`, the carcinogen call reads like this: (Species: RAT, Strain/Sex: SPRAGUE-DAWLEY/FEMALE, Route: ORAL, Dose: 0, 50, 100, 200 PPM IN DIET FOR THE DURATION OF STUDY (STUDY DURATION: 24 MO), Dose: 0, 50, 100, 200 PPM IN DIET FOR THE DURATION OF STUDY (STUDY DURATION: 24 MO), Tumor Site: Type of Lesion: LIVER: TUMOR) “active; positive”; (Species: RAT, Strain/Sex: SPRAGUE-DAWLEY/MALE, Route: ORAL, Dose: 0, 50, 100, 200 PPM IN DIET FOR THE DURATION OF STUDY (STUDY DURATION: 24 MO), Dose: 0, 50, 100, 200 PPM IN DIET FOR THE DURATION OF STUDY (STUDY DURATION: 24 MO)) “inactive; negative”.

As for `CC(=O)OCN(CC(C)C)N=O`, for the setting “Species: RAT, Strain/Sex: F344/FEMALE, Route: SUBCUTANEOUS, Dose: 6.6 MG/KG 1/WK FOR 10 WK, Tumor Site: Type of Lesion: INJECTION SITE: MALIGNANT FIBROUS HISTIOCYTOMA”, the carcinogen call is “active; positive”.

On to `CC1(C)COC1=O`, for which the carcinogen call is, setting by setting: (Species: MOUSE, Strain/Sex: B6C3F1/FEMALE, Route: GAVAGE, Dose: 0, 75, 150 MG/KG, Dose: 0, 75, 150 MG/KG) “inactive; negative”; (Species: MOUSE, Strain/Sex: B6C3F1/MALE, Route: GAVAGE, Dose: 0, 75, 150 MG/KG, Dose: 0, 75, 150 MG/KG) “inactive; negative”; (Species: RAT, Strain/Sex: F344/FEMALE, Route: GAVAGE, Dose: 0, 150, 300 MG/KG, Dose: 0, 150, 300 MG/KG, Tumor Site: Type of Lesion: STOMACH: SQUAMOUS CELL PAPILLOMA OR SQUAMOUS CELL CARCINOMA, UTERUS: ENDOMETRIAL STROMAL POLYP) “active; positive”; (Species: RAT, Strain/Sex: F344/MALE, Route: GAVAGE, Dose: 0, 150, 300 MG/KG, Dose: 0, 150, 300 MG/KG, Tumor Site: Type of Lesion: STOMACH: SQUAMOUS CELL PAPILLOMA OR SQUAMOUS CELL CARCINOMA, TESTES: INTERSTITIAL CELL TUMOR) “active; positive”.

As for `Cc1cc2c(c3ccc4ccccc4c13)C=C[C@@H](O)[C@@H]2O`, the carcinogen call reads like this: (Species: MOUSE, Strain/Sex: ICR/FEMALE, Route: INTRAPERITONEAL, Dose: 8 NMOL/5 µL DMSO ON DAY 1, 16 NMOL/10 µL ON DAY 8, AND 32 NMOL/20 µL ON DAY 15 OF AGE (STUDY DURATION: 35 WK), Tumor Site: Type of Lesion: LUNG: TUMORS, LIVER: TUMORS) “active; positive”; (Species: MOUSE, Strain/Sex: ICR/MALE, Route: INTRAPERITONEAL, Dose: 8 NMOL/5 µL DMSO ON DAY 1, 16 NMOL/10 µL ON DAY 8, AND 32 NMOL/20 µL ON DAY 15 OF AGE (STUDY DURATION: 35 WK), Tumor Site: Type of Lesion: LUNG: TUMORS) “active; positive”.

In the case of `CC(C)O`, the carcinogen call reads like this: (Species: MOUSE, Strain/Sex: CD-1/FEMALE, Route: INHALATION, Dose: 0, 500, 2500, 5000 PPM 6 HR/D 5 D/WK FOR 78 WK (STUDY DURATION: 78 WK), Dose: 0, 500, 2500, 5000 PPM 6 HR/D 5 D/WK FOR 78 WK (STUDY DURATION: 78 WK)) “inactive; negative”; (Species: MOUSE, Strain/Sex: CD-1/MALE, Route: INHALATION, Dose: 0, 500, 2500, 5000 PPM 6 HR/D 5 D/WK FOR 78 WK (STUDY DURATION: 78 WK), Dose: 0, 500, 2500, 5000 PPM 6 HR/D 5 D/WK FOR 78 WK (STUDY DURATION: 78 WK)) “inactive; negative”; (Species: RAT, Strain/Sex: F344/FEMALE, Route: INHALATION, Dose: 0, 500, 2500, 5000 PPM 6 HR/D 5 D/WK FOR 104 WK (STUDY DURATION: 104 WK), Dose: 0, 500, 2500, 5000 PPM 6 HR/D 5 D/WK FOR 104 WK (STUDY DURATION: 104 WK)) “inactive; negative”; (Species: RAT, Strain/Sex: F344/MALE, Route: INHALATION, Dose: 0, 500, 2500, 5000 PPM 6 HR/D 5 D/WK FOR 104 WK (STUDY DURATION: 104 WK), Dose: 0, 500, 2500, 5000 PPM 6 HR/D 5 D/WK FOR 104 WK (STUDY DURATION: 104 WK)) “inactive; negative”.

As for `CC(=O)N(O)c1ccc(/C=C/c2ccccc2)cc1`, the carcinogen call runs as follows: (Species: RAT, Strain/Sex: STRAIN-CD/FEMALE, Route: INTRAPERITONEAL, Dose: 0, 10 UMOL/KG BW 2/WK FOR 6 WK (STUDY DURATION: 62 WK), Tumor Site: Type of Lesion: LIVER: NEOPLASTIC NODULE, MAMMARY GLAND: TUMOR, EAR DUCT: TUMOR, PITUITARY GLAND: CARCINOMA, Tumor Site: Type of Lesion: LIVER: NEOPLASTIC NODULE, MAMMARY GLAND: TUMOR, EAR DUCT: TUMOR, PITUITARY GLAND: CARCINOMA) “active; positive”; (Species: RAT, Strain/Sex: STRAIN-CD/MALE, Route: INTRAPERITONEAL, Dose: 0, 10 UMOL/KG BW 2/WK FOR 6 WK (STUDY DURATION: 62 WK), Tumor Site: Type of Lesion: TESTICLE: MESOTHELIOMA, PANCREAS(ACINUS): ADENOMA, EAR DUCT: CARCINOMA, Tumor Site: Type of Lesion: TESTICLE: MESOTHELIOMA, PANCREAS(ACINUS): ADENOMA, EAR DUCT: CARCINOMA) “active; positive”.

The values are drawn from PubChem BioAssay AID1259411 (Chemical Carcinogenesis Research Information System (CCRIS), 2018).
